# Read-outs that look alike come from different tables or passages of the source.
# Assays:
# [1] = test system: anesthetized rats (evoked responses of anterior tibial muscle); test: In vivo neuromuscular block and cardiovascular side effects, anesthetized rat (Example 8, Table 3); conditions: for RI (recovery index): spontaneous recovery, 25-75% neuromuscular response; for Onset: time to 80-85% neuromuscular block
# In short: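 Pentobarbital-anesthetized (i.p.), ventilated adult male rats given saline-dissolved agents i.v.; anterior tibial EMG responses to supramaximal single or train-of-four sciatic/peroneal stimuli, plus 0.1 or 1 Hz stimulation. Doses for 50%, 80%, 90% block derived. Onset: minutes to 80-85% block; RI: 25-75% spontaneous recovery; vagal block, heart rate and blood pressure changes (%) at 80-85% blocking dose.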
# [2] = test system: rabbits; test: In vivo neuromuscular block and cardiovascular side effects, rabbit (Example 8, Table 7); conditions: for ED50: intravenous dose causing 50% neuromuscular block; for RI (recovery index): spontaneous recovery, 25-75% neuromuscular response; for Onset: time to 80-85% neuromuscular block
# [3] = test system: anesthetized monkeys; test: In vivo neuromuscular block and cardiovascular side effects, monkey (Example 8, Table 6); conditions: for ED50: intravenous dose causing 50% neuromuscular block; for RI (recovery index): spontaneous recovery, 25-75% neuromuscular response; for Onset: time to 80-85% neuromuscular block
# Excerpt: Both electromyographic and mechanomyographic responses can be quantified.
# The techniques described under a) and b) were employed in other species as needed with the modification that juvenile pigs were initially anesthetized with inhalation of halothane (Table 5) and monkeys were initially sedated with intramuscular ketamine injections prior to inducing and maintaining general anesthesia using pentobarbital and propofol administered intravenously (Table 6).
# [4] = test system: dogs; test: animal or person; type: in vivo; conditions: dog; for ED50: intravenous dose causing 50% neuromuscular block; for RI (recovery index): spontaneous recovery, 25-75% neuromuscular response; for Onset: time to 80-85% neuromuscular block
# [5] = test system: anesthetized juvenile pigs; test: animal or person; type: in vivo; conditions: pig; for ED50: intravenous dose causing 50% neuromuscular block; for RI (recovery index): spontaneous recovery, 25-75% neuromuscular response; for Onset: time to 80-85% neuromuscular block
# In short: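 Electromyographic and mechanomyographic responses quantified. Monkeys sedated with intramuscular ketamine, then general anesthesia with intravenous pentobarbital and propofol; juvenile pigs induced with inhaled halothane.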
# [6] = test system: anesthetized cats (evoked responses of anterior tibial muscle); test: animal or person; conditions: for RI (recovery index): spontaneous recovery, 25-75% neuromuscular response; for Onset: time to 80-85% neuromuscular block
# Excerpt: a) Adult, male albino rats were anesthetized with pentobarbital injected intraperitoneally. The trachea was cannulated for artificial respiration via a small animal respirator. The carotid artery was cannulated for recording blood pressure via a transducer and heart rate by a cardiotachograph on a polygraph. One external jugular vein was cannulated for i.v. drug administration. Neuromuscular function was monitored by electromyography, recording evoked responses from the anterior tibial muscle as a result of supramaximal nerve stimuli consisting of single or “train-of-four” rectangular pulses of 0.1-0.2 msec duration every 10-12 seconds, delivered to the sciatic or common peroneal nerve by a laboratory nerve stimulator. Another mode of stimulation included repeated single stimuli delivered at 0.1 Hz or 1 Hz. […] The agents were dissolved in physiologic saline and injected intravenously at appropriate time intervals. The intensity, onset, and duration of neuromuscular block and its type were determined with each agent. Through administering several doses, the doses corresponding to 50%, 80% and 90% neuromuscular block were determined. All agents were compared with selected standard neuromuscular blocking compounds, e.g. succinylcholine, pancuronium, mivacurium, or rocuronium.
# Onset=time in minutes to 80-85% neuromuscular block.
# RI=recovery index, minutes, spontaneous recovery, 25-75% neuromuscular response.
# VB=vagal block, %, at 80-85% neuromuscular blocking dose.
# ΔHR=change in heart rate, %, at 80-85% neuromuscular blocking dose.
# ΔBP=change in arterial blood pressure, %, at 80-85% neuromuscular blocking dose.
# b) Adult cats were anesthetized with a mixture of 70 mg/kg alpha chloralose and 0.5 g/kg ethylurethane intraperitoneally. One thigh was fixed in a vertical position by means of a pin at the lower end of the femur. Needle electrodes were placed on the sciatic or the common peroneal nerve. A tendon of the anterior tibial muscle was attached to a force transducer and the muscle responses evoked, as described under a), were recorded. Both electromyographic and mechanomyographic responses can be quantified. Blood pressure and heart rate changes were recorded from appropriately cannulated arteries via a blood pressure transducer and cardiotachograph.
# [7] = rat, intravenous dose causing 50% neuromuscular block
# [8] = cat, intravenous dose causing 50% neuromuscular block
# [9] = rat, at 80-85% neuromuscular blocking dose
# [10] = Oryctolagus cuniculus, read-out: ED50
# [11] = at 80-85% neuromuscular blocking dose
# [12] = Canis lupus familiaris, read-out: ED50
# [13] = cat, at 80-85% neuromuscular blocking dose
Compound,"ED50 [1, 7] [mg/kg]",RI (recovery index) ([1]; rat) [min],Onset ([1]; rat) [min],ΔBP (change in arterial blood pressure) ([2]; in vivo) [%],ΔH (change in heart rate) ([2]; in vivo) [%],ED50 [2] [mg/kg],RI (recovery index) [2] [min],Onset [2] [min],ΔBP (change in arterial blood pressure) ([3]; in vivo) [%],RI (recovery index) [3] [min],Onset [3] [min],RI (recovery index) [4] [min],Onset [4] [min],RI (recovery index) [5] [min],Onset [5] [min],RI (recovery index) ([6]; cat) [min],Onset ([6]; cat) [min],"VB (vagal block) [1, 9] [%]","ΔBP (change in arterial blood pressure) [1, 9] [%]","ΔH (change in heart rate) [1, 9] [%]",further results
"CC(=O)Oc1ccc(C[N+]2(C)C3CCCC2CC(OC(=O)CCCCCCC(=O)OC2CC4CCCC(C2)[N+]4(C)Cc2ccc(OC(C)=O)c(OC(C)=O)c2)C3)cc1OC(C)=O.[Br-].[Br-] (stereo not drawn) [bis[N-(3,4-diacetoxybenzyl)granataninium-3-yl]suberate dibromide]",0.45,0.35,0.4,0,0,0.475,0.55,0.5,0,0.4,0.9,0.45,0.8,0.8,0.6,0.5,0.6,,,,"VB (vagal block) ([1]; rat, in vivo): 60%; ΔBP (change in arterial blood pressure) ([1]; rat, in vivo): 0%; ΔH (change in heart rate) ([1]; rat, in vivo): 0%; ΔH (change in heart rate) ([3]; in vivo): 0%; ED50 [3]: 0.2 mg/kg; ΔBP (change in arterial blood pressure) ([4]; in vivo): −55%; ΔH (change in heart rate) ([4]; in vivo): 60%; ED50 [4]: 0.25 mg/kg; VB (vagal block) ([5]; in vivo): 80%; ΔBP (change in arterial blood pressure) ([5]; in vivo): 0%; ΔH (change in heart rate) ([5]; in vivo): 0%; ED50 [5]: 0.25 mg/kg; ED50 [6, 8]: 0.7 mg/kg; VB (vagal block) ([6]; in vivo): 80%; ΔBP (change in arterial blood pressure) ([6]; in vivo): −20%; ΔH (change in heart rate) ([6]; in vivo): 0%"
"CC(=O)Oc1ccc(C[N+]2(C)[C@@H]3CC[C@H]2C[C@@H](OC(=O)CCCC(=O)O[C@H]2C[C@H]4CC[C@@H](C2)[N+]4(C)Cc2ccc(OC(C)=O)c(OC(C)=O)c2)C3)cc1OC(C)=O.[Br-].[Br-] (stereo partly drawn) [bis[N-(3,4-diacetoxybenzyl)tropanium-3α-yl]glutarate dibromide]",,0.6,0.75,,,,0.7,0.9,,0.8,1,0.6,0.9,1.1,0.95,0.6,1,10,0,0,"ED50 ([1]; Rattus norvegicus, iv): 0.232 mg/kg; ED50 [2, 10]: 0.065 mg/kg; ΔBP (change in arterial blood pressure) [2, 11]: 0%; ΔH (change in heart rate) [2, 11]: 0%; ED50 ([3]; Primates, read-out: ED50): 0.088 mg/kg; ΔBP (change in arterial blood pressure) [3, 11]: 0%; ΔH (change in heart rate) [3, 11]: 0%; ED50 [4, 12]: 0.11 mg/kg; ΔBP (change in arterial blood pressure) [4, 11]: 0%; ΔH (change in heart rate) [4, 11]: 0%; ED50 ([5]; Sus scrofa, read-out: ED50): 0.23 mg/kg; VB (vagal block) [5, 11]: 41%; ΔBP (change in arterial blood pressure) [5, 11]: 0%; ΔH (change in heart rate) [5, 11]: 0%; ED50 ([6]; Felis catus, iv): 0.183 mg/kg; VB (vagal block) [6, 13]: 8%; ΔBP (change in arterial blood pressure) [6, 13]: 0%; ΔH (change in heart rate) [6, 13]: 0%"
"COc1cc(C[N+]2(C)[C@@H]3CC[C@H]2C[C@@H](OC(=O)C2CCC2C(=O)O[C@H]2C[C@H]4CC[C@@H](C2)[N+]4(C)Cc2ccc(OC(C)=O)c(OC)c2)C3)ccc1OC(C)=O.[Br-].[Br-] (stereo partly drawn) [bis[N-(4-acetoxy-3-methoxybenzyl)tropanium-3α-yl]cyclobutane-1,2-dicarboxylate dibromide]",,0.5,0.6,,,,0.55,0.6,,0.5,0.75,0.7,0.85,0.87,0.5,0.5,0.9,20,0,0,"ED50 ([1]; Rattus norvegicus, iv): 0.35 mg/kg; ED50 [2, 10]: 0.075 mg/kg; ΔBP (change in arterial blood pressure) [2, 11]: 0%; ΔH (change in heart rate) [2, 11]: 0%; ED50 ([3]; Primates, read-out: ED50): 0.092 mg/kg; ΔBP (change in arterial blood pressure) [3, 11]: 0%; ΔH (change in heart rate) [3, 11]: 0%; ED50 [4, 12]: 0.145 mg/kg; ΔBP (change in arterial blood pressure) [4, 11]: −15%; ΔH (change in heart rate) [4, 11]: 45%; ED50 ([5]; Sus scrofa, read-out: ED50): 0.268 mg/kg; VB (vagal block) [5, 11]: 46%; ΔBP (change in arterial blood pressure) [5, 11]: 0%; ΔH (change in heart rate) [5, 11]: 0%; ED50 ([6]; Felis catus, iv): 0.16 mg/kg; VB (vagal block) [6, 13]: 20%; ΔBP (change in arterial blood pressure) [6, 13]: 0%; ΔH (change in heart rate) [6, 13]: 0%"
"COc1cc(C[N+]2(C)C3CCC2CC(OC(=O)C2C4C=CC(C4)C2C(=O)OC2CC4CCC(C2)[N+]4(C)Cc2ccc(OC(C)=O)c(OC)c2)C3)ccc1OC(C)=O.[Br-].[Br-] (stereo not drawn) [bis[N-(4-acetoxy-3-methoxybenzyl)tropanium-3α-yl]trans-3,6-endomethylene-1,2,3,6-tetrahydrophthalate dibromide]",0.15,0.5,0.55,0,0,0.155,0.65,0.65,0,0.5,0.85,0.5,0.63,1,0.6,0.4,0.7,25,0,0,"ΔH (change in heart rate) ([3]; in vivo): 0%; ED50 [3]: 0.055 mg/kg; ΔBP (change in arterial blood pressure) ([4]; in vivo): −25%; ΔH (change in heart rate) ([4]; in vivo): 40%; ED50 [4]: 0.35 mg/kg; VB (vagal block) ([5]; in vivo): 43%; ΔBP (change in arterial blood pressure) ([5]; in vivo): 0%; ΔH (change in heart rate) ([5]; in vivo): 0%; ED50 [5]: 0.19 mg/kg; ED50 [6, 8]: 0.193 mg/kg; VB (vagal block) ([6]; in vivo): 20%; ΔBP (change in arterial blood pressure) ([6]; in vivo): 0%; ΔH (change in heart rate) ([6]; in vivo): 5%"
